This is an account of results in BindingDB's records for doi:10.1021/jm049227l (Molecular Discovery, 2005).

The experiment deals with Albumin (Homo sapiens, UniProt P02768). Briefly: Binding affinity towards human serum albumin.
Sequence of Albumin (P02768 whole entry): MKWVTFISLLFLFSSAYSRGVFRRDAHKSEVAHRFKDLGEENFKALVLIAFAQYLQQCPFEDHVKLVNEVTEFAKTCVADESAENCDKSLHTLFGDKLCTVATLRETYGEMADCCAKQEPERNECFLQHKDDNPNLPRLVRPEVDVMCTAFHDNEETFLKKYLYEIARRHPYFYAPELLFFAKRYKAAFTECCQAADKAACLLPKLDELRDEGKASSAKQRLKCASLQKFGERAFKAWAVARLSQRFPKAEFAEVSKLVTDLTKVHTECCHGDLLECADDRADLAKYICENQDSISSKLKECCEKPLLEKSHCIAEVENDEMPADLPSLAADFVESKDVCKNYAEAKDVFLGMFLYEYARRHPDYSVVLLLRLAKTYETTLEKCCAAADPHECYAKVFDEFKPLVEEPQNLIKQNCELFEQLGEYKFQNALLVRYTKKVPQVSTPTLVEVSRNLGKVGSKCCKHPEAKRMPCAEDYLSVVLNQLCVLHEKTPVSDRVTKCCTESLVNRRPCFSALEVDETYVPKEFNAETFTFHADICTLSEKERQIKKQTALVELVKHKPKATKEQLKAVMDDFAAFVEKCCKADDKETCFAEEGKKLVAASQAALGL
`Cc1cc(CC(=O)O)n(C)c1C(=O)c1ccc(Cl)cc1` displayed an Association constant (Ka) of 109000 M⁻¹. Compound `CS(=O)(=O)Nc1ccc([N+](=O)[O-])cc1Oc1ccccc1` returned a Ki of 15100 M⁻¹. In turn, `O=C(O)c1cccc(-c2ccccc2)c1` showed an Association constant (Ka) of 251000 M⁻¹. In the case of `Nc1cccc(-c2ccc(O)c(C(=O)O)c2)c1`, the Association constant (Ka) stood at 2750 M⁻¹. On to `CC(C)Cc1ccc([C@@H](C)C(=O)N[C@H](C)C(=O)O)cc1`, for which the Association constant (Ka) worked out at 39800 M⁻¹. Still for that read-out and setting: the same measure for `NCc1ccc(-c2ccc(C(=O)O)cc2)cc1`: 1000 M⁻¹. The same measure, in the same setting: under `CC(C)Cc1ccc([C@@H](C)C(=O)NCCCN(C)C)cc1` stands 5010 M⁻¹. As to `C[C@@H](C(=O)NCCCN1CCCC1)c1ccc(OS(=O)(=O)C(F)(F)F)cc1`, the Association constant (Ka) amounted to 2690 M⁻¹. `O=C(O)c1cccc(-c2ccc(Cl)cc2Cl)c1` displayed an Association constant (Ka) of 23900 M⁻¹. The same measure, in the same setting: under `Nc1cccc(-c2cccc(C(=O)O)c2)c1` stands 7760 M⁻¹; under `C[C@@H](C(=O)NCCN1CCCC1)c1ccc(OS(=O)(=O)C(F)(F)F)cc1`, 3890 M⁻¹; under `CC(C)Cc1ccc([C@@H](C)C(=O)NCCOCCO)cc1`, 8120 M⁻¹. Same read-out and setting: under `CC(C)(C)c1ccc(O)c(C(=O)O)c1` stands 20400 M⁻¹; under `CC(Cc1ccc([C@@H](C)C(=O)NS(C)(=O)=O)cc1)C(=O)O` (stereo not given in full), 3890 M⁻¹. The same measure, in the same setting: the same measure for `COc1ccc2c(c1)CN(c1ccc(C(C)C(=O)O)cc1)C2=O` (stereo not given): 81200 M⁻¹; for `NCc1cc(-c2ccc(C(=O)O)cc2)ccc1F`: 1000 M⁻¹. `O=C(O)c1cccc(-c2cc(C(F)(F)F)cc(C(F)(F)F)c2)c1` yielded an Association constant (Ka) of 3090 M⁻¹. As for `O=C(O)c1cccc(-c2cc(Cl)cc(Cl)c2)c1`, the Association constant (Ka) was 5750 M⁻¹.

Take `C[C@@H](C(N)=O)c1ccc(OS(=O)(=O)C(F)(F)F)cc1`: the Association constant (Ka) was 19000 M⁻¹. With `Nc1ccc(-c2cccc(C(=O)O)c2)cc1`, the Association constant (Ka) worked out at 6160 M⁻¹.

Compound `CC(C)c1ccc(O)c(C(=O)O)c1` came in with an Association constant (Ka) of 26300 M⁻¹.

As to `CC(C(=O)O)c1ccc(-c2ccccc2)c(F)c1` (racemic) [2-(2-fluoro-[1,1'-biphenyl-4-yl])propanoic acid], the Association constant (Ka) was determined as 331000 M⁻¹.

The compound `CC(C)NCC(O)c1ccc(NS(C)(=O)=O)cc1` (racemic) [Sotalol,(-)] yielded an Association constant (Ka) of 354 M⁻¹.

Compound `CCCNC(=O)NS(=O)(=O)c1ccc(Cl)cc1` [1-(4-chlorophenylsulfonyl)-3-propylurea] registered an Association constant (Ka) of 39800 M⁻¹. Same read-out and setting: under `Cc1ccc(C(=O)c2ccc(CC(=O)O)n2C)cc1` [2-(1-methyl-5-(4-methylbenzoyl)-1H-pyrrol-2-yl)acetic acid] stands 416000 M⁻¹; under `O=C(O)c1cc(-c2ccccc2)ccc1O` [2-Hydroxy-5-phenylbenzoic acid], 100000 M⁻¹; under `Oc1ccc(-c2ccccc2)cc1` [4-Hydroxybiphenyl], 9540 M⁻¹. Same read-out and setting: under `O=C(O)c1cc(Cl)ccc1O` [5-Chloro-2-hydroxy-benzoic acid] stands 21300 M⁻¹; under `CC(C)Cc1ccc([C@@H](C)C(=O)NS(C)(=O)=O)cc1` [(R)-2-(4-isobutylphenyl)-N-(methylsulfonyl)propanamide], 1.65e+06 M⁻¹. Turning to `O=C(O)c1ccc(-c2ccccc2)cc1` [Biphenyl-4-carboxylic acid], the Association constant (Ka) is 199000 M⁻¹. Same read-out and setting: under `Cc1ccc(S(=O)(=O)NC(=O)NN2CCCCCC2)cc1` [CHEBI:9613] stands 53700 M⁻¹.

`C[C@@H](C(=O)NS(C)(=O)=O)c1ccc(OS(=O)(=O)C(F)(F)F)cc1` [DF-2156A] registered an Association constant (Ka) of 831000 M⁻¹. In the case of `NS(=O)(=O)c1cc2c(cc1Cl)NCNS2(=O)=O` [JFD00715], the Association constant (Ka) was 2290 M⁻¹.

In turn, `CC1=C(CC(=O)O)c2cc(F)ccc2/C1=C\c1ccc([S+](C)[O-])cc1` (stereo not given) [Sulindac] came in with an Association constant (Ka) of 26300 M⁻¹. Same read-out and setting: under `O=C(c1ccccc1)c1ccc2n1CCC2C(=O)O` (stereo not given) [Toradol] stands 208000 M⁻¹.
